± gives the expanded uncertainty stated by the source.
Assay: xn = mol fraction of the nth substance listed
Details: Fluid (supercritical or subcritical phases), Vibrating tube method

c1ccc2ccccc2c1 [naphthalene] + O=C=O
Details	mass density [kg/m3]
313.11 K, 8747 kPa, x1 = 0.0049	531.42 ± 4.6
313.11 K, 8855 kPa, x1 = 0.0049	556.55 ± 3.9
313.11 K, 8983 kPa, x1 = 0.0093	627.46 ± 2.5
313.11 K, 9034 kPa, x1 = 0.0093	633.13 ± 2.5
313.11 K, 9048 kPa, x1 = 0.0049	590.85 ± 2.7
313.11 K, 9499 kPa, x1 = 0.0049	639 ± 2.2
313.11 K, 9997 kPa, x1 = 0.0049	670.97 ± 1.6
313.11 K, 10053 kPa, x1 = 0.0093	697.27 ± 1.2
313.11 K, 11012 kPa, x1 = 0.0049	712.47 ± 1.1
313.11 K, 11036 kPa, x1 = 0.0093	731.61 ± 1
313.11 K, 11998 kPa, x1 = 0.0093	755.87 ± 0.83
313.11 K, 12044 kPa, x1 = 0.0049	741.27 ± 0.88
313.11 K, 12486 kPa, x1 = 0.0173	783.64 ± 0.88
313.11 K, 12995 kPa, x1 = 0.0049	761.49 ± 0.78
313.11 K, 13003 kPa, x1 = 0.0093	775.73 ± 0.74
313.11 K, 13034 kPa, x1 = 0.0173	790.35 ± 0.72
313.11 K, 14017 kPa, x1 = 0.0049	779.61 ± 0.72
313.11 K, 14028 kPa, x1 = 0.0093	792.52 ± 0.69
313.11 K, 14045 kPa, x1 = 0.0173	805.22 ± 0.64
313.11 K, 14979 kPa, x1 = 0.0049	794.2 ± 0.67
313.11 K, 14995 kPa, x1 = 0.0093	806.12 ± 0.65
313.11 K, 15031 kPa, x1 = 0.0173	818.06 ± 0.63
313.11 K, 16007 kPa, x1 = 0.0093	818.64 ± 0.62
313.11 K, 16029 kPa, x1 = 0.0049	808.12 ± 0.64
313.11 K, 16046 kPa, x1 = 0.0173	829.54 ± 0.6
313.11 K, 16999 kPa, x1 = 0.0049	819.57 ± 0.61
313.11 K, 17003 kPa, x1 = 0.0093	829.62 ± 0.6
313.11 K, 17015 kPa, x1 = 0.0173	839.94 ± 0.58
313.11 K, 18017 kPa, x1 = 0.0173	849.35 ± 0.57
313.11 K, 18019 kPa, x1 = 0.0093	839.78 ± 0.58
313.11 K, 18053 kPa, x1 = 0.0049	830.86 ± 0.59
313.11 K, 19023 kPa, x1 = 0.0049	840.37 ± 0.58
313.11 K, 19029 kPa, x1 = 0.0093	849.05 ± 0.56
313.11 K, 19030 kPa, x1 = 0.0173	858.05 ± 0.56
313.11 K, 19995 kPa, x1 = 0.0093	857.27 ± 0.55
313.11 K, 20008 kPa, x1 = 0.0049	849.27 ± 0.56
313.11 K, 20013 kPa, x1 = 0.0173	865.93 ± 0.55
313.11 K, 20987 kPa, x1 = 0.0049	857.52 ± 0.55
313.11 K, 20997 kPa, x1 = 0.0093	865.26 ± 0.54
313.11 K, 21031 kPa, x1 = 0.0173	873.48 ± 0.54
313.11 K, 21996 kPa, x1 = 0.0049	865.5 ± 0.54
313.11 K, 22000 kPa, x1 = 0.0093	872.7 ± 0.53
313.11 K, 22008 kPa, x1 = 0.0173	880.38 ± 0.53
313.11 K, 22977 kPa, x1 = 0.0049	872.82 ± 0.53
313.11 K, 22989 kPa, x1 = 0.0173	886.86 ± 0.52
313.11 K, 22998 kPa, x1 = 0.0093	879.67 ± 0.53
313.11 K, 24021 kPa, x1 = 0.0093	886.44 ± 0.52
313.11 K, 24036 kPa, x1 = 0.0173	893.38 ± 0.51
313.11 K, 24043 kPa, x1 = 0.0049	880.36 ± 0.53
313.11 K, 24684 kPa, x1 = 0.0173	897.25 ± 0.51
313.11 K, 24941 kPa, x1 = 0.0093	892.28 ± 0.52
313.13 K, 10564 kPa, x1 = 0.0144	726.54 ± 0.85
313.13 K, 10994 kPa, x1 = 0.0144	737.45 ± 0.81
313.13 K, 12022 kPa, x1 = 0.0144	761.26 ± 0.81
313.13 K, 13026 kPa, x1 = 0.0144	779.83 ± 0.73
313.13 K, 13996 kPa, x1 = 0.0144	794.9 ± 0.68
313.13 K, 15027 kPa, x1 = 0.0144	808.74 ± 0.64
313.13 K, 16009 kPa, x1 = 0.0144	820.49 ± 0.62
313.13 K, 16978 kPa, x1 = 0.0144	831.02 ± 0.59
313.13 K, 17970 kPa, x1 = 0.0144	840.48 ± 0.58
313.13 K, 19038 kPa, x1 = 0.0144	850.11 ± 0.56
313.13 K, 20010 kPa, x1 = 0.0144	858.26 ± 0.55
313.13 K, 21047 kPa, x1 = 0.0144	866.4 ± 0.54
313.13 K, 22028 kPa, x1 = 0.0144	873.6 ± 0.53
313.13 K, 23018 kPa, x1 = 0.0144	880.48 ± 0.52
313.13 K, 24032 kPa, x1 = 0.0144	887.14 ± 0.52
313.13 K, 25059 kPa, x1 = 0.0144	893.55 ± 0.52
318.03 K, 13470 kPa, x1 = 0.0198	763.8 ± 0.72
318.03 K, 13587 kPa, x1 = 0.0198	765.92 ± 0.71
318.03 K, 13765 kPa, x1 = 0.0198	769.11 ± 0.71
318.03 K, 13870 kPa, x1 = 0.0198	770.92 ± 0.71
318.03 K, 13982 kPa, x1 = 0.0198	772.89 ± 0.71
318.03 K, 14098 kPa, x1 = 0.0198	774.83 ± 0.7
318.03 K, 14247 kPa, x1 = 0.0198	777.23 ± 0.69
318.03 K, 14369 kPa, x1 = 0.0198	779.18 ± 0.69
318.03 K, 14487 kPa, x1 = 0.0198	781.08 ± 0.68
318.03 K, 14571 kPa, x1 = 0.0198	782.37 ± 0.68
318.03 K, 14668 kPa, x1 = 0.0198	783.91 ± 0.68
318.03 K, 14765 kPa, x1 = 0.0198	785.29 ± 0.66
318.03 K, 14877 kPa, x1 = 0.0198	787 ± 0.67
318.03 K, 14970 kPa, x1 = 0.0198	788.42 ± 0.66
318.03 K, 15080 kPa, x1 = 0.0198	789.97 ± 0.66
318.03 K, 15304 kPa, x1 = 0.0198	793.1 ± 0.66
318.03 K, 15487 kPa, x1 = 0.0198	795.62 ± 0.66

From the NIST ThermoML archive (doi:10.1016/j.fluid.2005.06.010)
